From patent publication US10329242B2, “Process for purifying long chain amino acids” (VITAWORKS IP, LLC, priority 2017, dated 2019)
Counter-ions that a name gives are not always drawn.

Key:
[1] = Solubility of bisulfate salts in 1 M solution of sulfuric acid; format: physicochemical; details: for solubility: temperature below 40° C.; for solubility change with temperature: temperature increased from 60° C. to 80° C. and above
[2] = Solubility in water and aqueous solution of acetic acid; format: physicochemical; details: aqueous solution of 10% (wt/wt) acetic acid at 80° C.

solubility [1] | solubility change with temperature [1] | solubility [2] | SMILES
negligible solubility | drastically increased | up to 45 % (wt/wt) | NCCCCCCCCCCC(=O)O [11-aminoundecanoic acid]
negligible solubility | drastically increased |  | NCCCCCCCCCCCC(=O)O [bisulfate salt of 12-aminolauric acid, 12-aminolauric acid]
